Laboratory results as given in patent publication US9707305B2, “Formulas for diagnosing and treating hormone-dependent cancers and cancers of the organs responsible for steroid hormone synthesis” (Commissariat à l'énergie atomique et aux énergies …, priority 2011, dated 2017).

How the values were obtained:
[1] = Biodistribution of the mixture of three free tracers (not formulated as nano-emulsion), comparative; assay type: in vivo; conditions: FVB female mouse
Protocol: (§1) In the following examples, the radioactivity was counted with the TRiCarb Counter (Ref: Packard, Liquid Scintillation Analyzers; Models 2200CA).
(§2) Fluobeam 700 (Fluoptics) is the apparatus with which the whole of the organs from the biodistribution were analyzed in fluorescence as well as the one with which the biodistribution kinetics of the nano-emulsions were established in vivo. This imaging system allows viewing of the fluorescence in spectral bands from 700 to 850 nm for a 650 nm excitation. The apparatus consists of an electric case containing the laser of class 3B, its power supply and an optical head containing the CCD camera.
As a comparison, a mixture of three tracers ([3H]CHE, [14C]CO and DiD) (not formulated as a nano-emulsion) was injected in order to observe the distribution of the tracers in the absence of droplets being used as a distribution carrier.

[2] = Biodistribution of the nano-emulsion of Example 1.1 (radioactivity and fluorescence per organ); assay type: in vivo
Protocol: as §1, §2
The nano-emulsions of Example 1 were injected into FVB female and male mice. As a comparison, a mixture of three tracers ([3H]CHE, [14C]CO and DiD) (not formulated as a nano-emulsion) was injected in order to observe the distribution of the tracers in the absence of droplets being used as a distribution carrier.
Tables 6 to 14 provide the biodistribution results of each tracer ([3H]CHE, [14C]CO and DiD) expressed as a percentage of the dose injected per gram of tissue (or [3H]CHE and [14C]CO) or as fluorescence intensity (for DiD) depending on the organ of the mouse, 15 minutes (Table 6), 2 hours (Table 7), 4 hours (Table 8), 6 hours (Table 9), 16 hours (Table 10), 24 hours (Table 11), 72 hours (Table 12), 120 hours (Table 13) and 168 hours (Table 14), after injection into an FVB female mouse of the nano-emulsion of Example 1.1. (nano-emulsion according to the invention comprising the three tracers ([3H]CHE, [14C]CO and DiD).

[3] = 2 h after injection of free tracers (not nano-emulsion)
[4] = 6 h after injection of free tracers (not nano-emulsion)
[5] = 16 h after injection of free tracers (not nano-emulsion)
[6] = 24 h after injection of free tracers (not nano-emulsion)
[7] = 15 min after injection of nano-emulsion of Example 1.1, FVB female mouse
[8] = 2 h after injection of nano-emulsion of Example 1.1, FVB female mouse

For `CCCCCCCC/C=C\CCCCCCC[14C](=O)O[C@H]1CC[C@@]2(C)C(=CC[C@H]3[C@@H]4CC[C@H]([C@H](C)CCCC(C)C)[C@@]4(C)CC[C@@H]32)C1` [[14C]CO, cholesteryl oleate], the “biodistribution, Adrenal glands (MEAN)” value [1, 3] was 3.25 % of injected dose per gram of, the “biodistribution, Brain (MEAN)” value [1, 3] was 0.23 % of injected dose per gram of and the “biodistribution, Fat (MEAN)” value [1, 3] was 0.69 % of injected dose per gram of. The “biodistribution, Heart (MEAN)” value [1, 3] was 0.59 % of injected dose per gram of, the “biodistribution, Intestine (MEAN)” value [1, 3] was 0.76 % of injected dose per gram of and the “biodistribution, Kidney (MEAN)” value [1, 3] was 0.89 % of injected dose per gram of. The “biodistribution, Liver (MEAN)” value [1, 3] was 4.79 % of injected dose per gram of, the “biodistribution, Lung (MEAN)” value [1, 3] was 72.86 % of injected dose per gram of and the “biodistribution, Muscle (MEAN)” value [1, 3] was 0.38 % of injected dose per gram of. For the same compound, the “biodistribution, Ovary (MEAN)” value [1, 3] was 1.57 % of injected dose per gram of, the “biodistribution, Pancreas (MEAN)” value [1, 3] was 0.47 % of injected dose per gram of and the “biodistribution, Salivary gland (MEAN)” value [1, 3] was 0.74 % of injected dose per gram of. The “biodistribution, Spleen (MEAN)” value [1, 3] was 3.65 % of injected dose per gram of, the “biodistribution, Uterus (MEAN)” value [1, 3] was 0.49 % of injected dose per gram of and the “biodistribution, Adrenal glands (MEAN)” value [1, 4] was 3.56 % of injected dose per gram of. For the same compound, the “biodistribution, Brain (MEAN)” value [1, 4] was 0.26 % of injected dose per gram of, the “biodistribution, Fat (MEAN)” value [1, 4] was 1.05 % of injected dose per gram of and the “biodistribution, Heart (MEAN)” value [1, 4] was 1.21 % of injected dose per gram of. The “biodistribution, Intestine (MEAN)” value [1, 4] was 1.21 % of injected dose per gram of, the “biodistribution, Kidney (MEAN)” value [1, 4] was 1.36 % of injected dose per gram of and the “biodistribution, Liver (MEAN)” value [1, 4] was 5.53 % of injected dose per gram of. For the same compound, the “biodistribution, Lung (MEAN)” value [1, 4] was 142.66 % of injected dose per gram of, the “biodistribution, Muscle (MEAN)” value [1, 4] was 0.53 % of injected dose per gram of and the “biodistribution, Ovary (MEAN)” value [1, 4] was 2.12 % of injected dose per gram of. For the same compound, the “biodistribution, Pancreas (MEAN)” value [1, 4] was 0.76 % of injected dose per gram of, the “biodistribution, Salivary gland (MEAN)” value [1, 4] was 1.15 % of injected dose per gram of and the “biodistribution, Spleen (MEAN)” value [1, 4] was 3.53 % of injected dose per gram of. The “biodistribution, Uterus (MEAN)” value [1, 4] was 0.46 % of injected dose per gram of, the “biodistribution, Adrenal gland (MEAN)” value [1, 5] was 4.24 % of injected dose per gram of and the “biodistribution, Brain (MEAN)” value [1, 5] was 0.30 % of injected dose per gram of. For the same compound, the “biodistribution, Fat (MEAN)” value [1, 5] was 1.39 % of injected dose per gram of, the “biodistribution, Heart (MEAN)” value [1, 5] was 1.87 % of injected dose per gram of and the “biodistribution, Intestine (MEAN)” value [1, 5] was 1.09 % of injected dose per gram of. The “biodistribution, Kidney (MEAN)” value [1, 5] was 1.82 % of injected dose per gram of, the “biodistribution, Liver (MEAN)” value [1, 5] was 11.86 % of injected dose per gram of and the “biodistribution, Lung (MEAN)” value [1, 5] was 261.87 % of injected dose per gram of. The “biodistribution, Muscle (MEAN)” value [1, 5] was 0.43 % of injected dose per gram of, the “biodistribution, Ovary (MEAN)” value [1, 5] was 1.64 % of injected dose per gram of and the “biodistribution, Pancreas (MEAN)” value [1, 5] was 1.00 % of injected dose per gram of. For the same compound, the “biodistribution, Salivary gland (MEAN)” value [1, 5] was 1.29 % of injected dose per gram of, the “biodistribution, Spleen (MEAN)” value [1, 5] was 5.32 % of injected dose per gram of and the “biodistribution, Uterus (MEAN)” value [1, 5] was 1.00 % of injected dose per gram of. For the same compound, the “biodistribution, Adrenal gland (MEAN)” value [1, 6] was 2.60 % of injected dose per gram of, the “biodistribution, Brain (MEAN)” value [1, 6] was 0.22 % of injected dose per gram of and the “biodistribution, Fat (MEAN)” value [1, 6] was 1.64 % of injected dose per gram of. For the same compound, the “biodistribution, Heart (MEAN)” value [1, 6] was 0.82 % of injected dose per gram of, the “biodistribution, Intestine (MEAN)” value [1, 6] was 0.81 % of injected dose per gram of and the “biodistribution, Kidney (MEAN)” value [1, 6] was 1.02 % of injected dose per gram of. The “biodistribution, Liver (MEAN)” value [1, 6] was 3.29 % of injected dose per gram of, the “biodistribution, Lung (MEAN)” value [1, 6] was 29.91 % of injected dose per gram of and the “biodistribution, Muscle (MEAN)” value [1, 6] was 0.79 % of injected dose per gram of. The “biodistribution, Ovary (MEAN)” value [1, 6] was 1.40 % of injected dose per gram of, the “biodistribution, Pancreas (MEAN)” value [1, 6] was 0.95 % of injected dose per gram of and the “biodistribution, Salivary gland (MEAN)” value [1, 6] was 0.86 % of injected dose per gram of. The “biodistribution, Spleen (MEAN)” value [1, 6] was 2.27 % of injected dose per gram of, the “biodistribution, Uterus (MEAN)” value [1, 6] was 0.62 % of injected dose per gram of and the “accumulation of the free radioactive tracers in the lungs” value ([1]; Tables 2 to 5 (2 to 24 h), free tracers) was “strong accumulation”. The “biodistribution, Adrenal glands (MEAN)” value [2, 7] was 10.18 % of injected dose per gram of, the “biodistribution, Brain (MEAN)” value [2, 7] was 0.499 % of injected dose per gram of and the “biodistribution, Fat (MEAN)” value [2, 7] was 1.15 % of injected dose per gram of. For the same compound, the “biodistribution, Heart (MEAN)” value [2, 7] was 8.676 % of injected dose per gram of, the “biodistribution, Intestine (MEAN)” value [2, 7] was 1.75 % of injected dose per gram of and the “biodistribution, Kidney (MEAN)” value [2, 7] was 4.20 % of injected dose per gram of. For the same compound, the “biodistribution, Liver (MEAN)” value [2, 7] was 8.86 % of injected dose per gram of, the “biodistribution, Lung (MEAN)” value [2, 7] was 3.92 % of injected dose per gram of and the “biodistribution, Muscle (MEAN)” value [2, 7] was 0.744 % of injected dose per gram of. For the same compound, the “biodistribution, Ovary (MEAN)” value [2, 7] was 4.59 % of injected dose per gram of, the “biodistribution, Pancreas (MEAN)” value [2, 7] was 1.262 % of injected dose per gram of and the “biodistribution, Salivary glands (MEAN)” value [2, 7] was 1.057 % of injected dose per gram of. For the same compound, the “biodistribution, Spleen (MEAN)” value [2, 7] was 3.58 % of injected dose per gram of, the “biodistribution, Uterus (MEAN)” value [2, 7] was 0.93 % of injected dose per gram of and the “biodistribution, Adrenal glands (MEAN)” value [2, 8] was 18.50 % of injected dose per gram of. For the same compound, the “biodistribution, Brain (MEAN)” value [2, 8] was 0.29 % of injected dose per gram of, the “biodistribution, Fat (MEAN)” value [2, 8] was 3.85 % of injected dose per gram of and the “biodistribution, Heart (MEAN)” value [2, 8] was 4.41 % of injected dose per gram of. The “biodistribution, Intestine (MEAN)” value [2, 8] was 2.33 % of injected dose per gram of, the “biodistribution, Kidneys (MEAN)” value [2, 8] was 3.91 % of injected dose per gram of and the “biodistribution, Liver (MEAN)” value [2, 8] was 19.41 % of injected dose per gram of.
